Measurements taken from US6933150B1, “Relationship of ABC transport proteins with hematopoietic stem cells and methods of use thereof” (priority 1998, dated 2005).

Assays:
[1] = test system: ABC transporter; assay: SP cell analysis of mdr1a/1b knockout bone marrow cells treated with ABC transporter inhibitors; details: treatment before and during Hoechst 33342 staining
Method: Hoechst 33342 SP cell assay: Murine bone marrow cells were collected and resuspended at 1×10^6 cells/ml in DMEM plus 10 mM HEPES and 2%, FBS. In a water bath, the cells were allowed to equilibrate at 37° C., followed by addition of 5 μg/ml Hoechst 33342 (Fisher Scientific, Pittsburgh, Pa.) for 90 minutes as previously described [Goodell et al., J. Exp. Med., 183:1797-1806 (1996)]. Cells were then centrifuged at 4° C. and resuspended in ice cold HBSS plus 10 mM HEPES and 2% FBS at 1×10^7 cells/ml. For flow cytometric analysis or sorting, a Becton Dickinson FACS Vantage flow cytometer (Becton Dickinson, San Jose, Calif.) was configured for dual emission wavelength analysis as previously described [Goodell et al., J. Exp. Med., 183:1797-1806 (1996)]. Cells were gated based on forward and side light scatter to exclude debris. […] Cells were analyzed at approximately 5,000 cells/second until data from 1×10^6 cells were collected. The SP cell gate was defined based on normal fresh C57BL/6 bone marrow cells.
Cells were treated with either verapamil or 2-deoxyglucose. Verapamil is a competitive inhibitor of several known ABC transporters including MDR1, whereas 2-deoxyglucose is an inhibitor of ATP synthesis that depletes cellular ATP levels required for ABC transporter function.

[2] = test system: myeloid progenitors; assay: Drug-resistant myeloid progenitor (CFU-C) assay in methylcellulose; format: cell-based, mouse; details: 25 to 50 nM, thymidine phosphorylase-treated methylcellulose
Method: Ex vivo culture and expansion of myeloid progenitors: Following transduction (day 0), cells were cultured in the presence of the growth factor combination described above. Cells were resuspended at 1×10^6 cells/ml every 3-6 days for at least 12 days of expansion. Aliquots of cells were removed for CFU-C analysis at various time points.
Retroviral-mediated gene transfer into murine hematopoietic stem cells: BM cells were harvested from C57BL/6 or B6.Ch-1/By (referred to as “HW80”) congenic mouse strains (Jackson Laboratories, Bar Harbor, Me. ) by standard methods. Following isolation, cells were placed into liquid suspension culture in Dulbecco's Modified Eagle's Medium (DMEM) (BioWhittaker, Walkersville, Md.) with 1% penicillin/streptomycin (Gibco/BRL, Grand Island, N.Y.), 15% fetal bovine serum (FBS; Hyclone, Logan Utah), 20 ng/ml murine interleukin (IL)-3®& D Systems, Minneapolis, Minn.), 50 ng/ml human IL-6 (Amgen, Thousand Oaks, Calif.), and 50 ng/ml murine stem cell factor ® & D Systems). The cells were initially plated at 1×10^6 cells/ml in 10 mls of medium. Following pre-stimulation for 48 hours, cells were replated onto confluent monolayers of irradiated ecotropic producer cell lines. The bone marrow cells were plated at the same density used in the pre-stimulation phase and in the same medium with 6 μg/ml polybrene added. […]

Compound | Effect on SP cell phenotype [1] | Killing of non-transduced background cells [2]
O=CC[C@@H](O)[C@H](O)[C@H](O)CO [2-deoxyglucose] | eliminated phenotypically identifiable SP cells | –
COc1cc(NCc2ccc3nc(N)nc(N)c3c2C)cc(OC)c1OC [trimetrexate] | – | completely killed
COc1ccc(CCN(C)CCCC(C#N)(c2ccc(OC)c(OC)c2)C(C)C)cc1OC (stereo not drawn) [verapamil] | eliminated phenotypically identifiable SP cells | –
